We go through three substances from patent US20140364483A1, “ALTERNATIVE SPLICING VARIANTS OF GENES ASSOCIATED WITH PROSTATE CANCER RISK AND SURVIVAL” (The George Washington University, priority 2011, published 2014).

What all share (assay type): cell-based, human
The subject of data set [1] is VCaP cells. Kind of data set: Cell proliferation after siRNA knockdown of splice variants. As to conditions: CA PCa cell line VCaP. The text has this: (§1) The predominant expression of the L variant and very little to no expression of the S variant in the CA PCa cell line is consistent with the CA patient samples (see PIK3CD in FIG. 4). SiRNA-mediated knockdown of the L variant in VCaP cells leads to a decrease in Matrigel invasion and a decrease in proliferation (FIG. 7A). By comparison, the AA PCa cell line MDA PCa 2b expresses both an L and S variant, and knockdown of the L variant leads to an increase in Matrigel invasion and an increase in proliferation (FIG. 7A). Since VCaP cells express very little to no S variant, targeted siRNA-mediated knockdown of this variant leads to no change in Matrigel invasion and proliferation (FIG. 7B). In contrast, targeted knockdown of the S variant in MDA PCa 2b cells leads to decreased Matrigel invasion and decreased proliferation (since the S variant is found almost exclusively in AA patient samples, it is referred to as the ‘AA variant’) (FIG. 7B). […] Analogous findings were obtained in MDA PCa 2b cells when the ratio of the ‘AA variant’ (S or b isoform) was increased over the ‘CA variant’ (L or an isoform) for the FGFR3, TSC2.
(§2) For RASGRP2, the long variant (with exon 10) is common to both AA and CA patients, whereas the short variant (without exon 10) is unique to AA. Targeted knockdown of the long splicing variant in VCaP cells reduced Matrigel invasion and an increase in proliferation (FIG. 8).

Data set [2] deals with MDA PCa 2b cells. The data set is described as above. As to conditions: AA PCa cell line MDA PCa 2b.
Description: as §1, §2

Data set [3] relates to VCaP cells. The data set is described as follows: Matrigel invasion after siRNA knockdown of splice variants. The settings on record: CA PCa cell line VCaP.
Description: as §1, §2

The subject of data set [4] is MDA PCa 2b cells. The description is as above. As to conditions: AA PCa cell line MDA PCa 2b.
Description: as §1, §2

The next data set has as its system AKT pathway. Kind of data set: AKT pathway phosphorylation after knockdown of PIK3CD long variant. From the text: Activation of AKT is known to promote cell growth and mRNA translation (FIG. 9a). When the expression of PIK3CD “long” variant is knocked down by siRNA targeting of Exon 23 in the VCaP cell line, which only expresses the long variant, there is a decrease of phosphorylation of AKT, compared to nonsense siRNA control, and also decrease of phosphorylation of downstream signaling proteins mTOR and S6 (FIG. 9b). […] In other words, increasing S/L variants proportion in MDA PCa 2b cells activates the AKT pathways.

Setting [5] is: VCaP cell line, compared to nonsense siRNA control.

d = 2'-deoxy (DNA); r = 2'-OH (RNA); {P} = phosphate

Regarding “siPIK3CD-ex23: siRNA duplex SEQ ID Nos. 4 and 5, sense 5′ CCAACAUCCAACUCAACAAdTdT 3′; knocks down PIK3CD long variant (antisense UUGUUGAGUUGGAUGUUGG; sense: RNA, 3' dTdT, backbone not given here; antisense: RNA, 5' {P}, 3' dTdT, backbone not given here)”, the proliferation result in the data set with VCaP cells [1] is reported as “decrease”. The proliferation entry in the data set on MDA PCa 2b cells [2] was “increase”. Further, the Matrigel invasion entry with VCaP cells [3] is “decrease”. Besides, the Matrigel invasion result in the data set with MDA PCa 2b cells [4] is given as “increase”. For the same substance, in the data set with AKT pathway (MDA PCa 2b cells), the “AKT phosphorylation, both on Thr308 and Ser473” value is given as “markedly increases”; the “phosphorylation of mTOR and S6” value was “increases”. In addition, in the data set on AKT pathway (setting [5]), the “phosphorylation of AKT” value is recorded as “decrease”; the “phosphorylation of downstream signaling proteins mTOR and S6” value is reported as “decrease”.
On to “siRNA targeting RASGRP2 exon 10: siRNA duplex SEQ ID Nos. 40 and 41, sense 5′ GUGGAGCACAUCGAGAAGAdTdT 3′; long variant contains exon 10 (sense GUGGAGCACAUCGAGAAGATT; antisense UCUUCUCGAUGUGCUCCAC; sense: sugars from the 5' end r19 d2, backbone not given here; antisense: chemistry not given here)”, for which the proliferation result in the data set with VCaP cells [1] is on record as “increase”; in the data set on MDA PCa 2b cells [2], “opposite effect”. For the same substance, the Matrigel invasion result with VCaP cells [3] is given as “reduced”; in the data set with MDA PCa 2b cells [4], “opposite effect”.
As for “siPIK3CD-S: siRNA duplex SEQ ID Nos. 12 and 13, sense 5′ UGAGGGAGGCCCUGGAUCGAdTdT 3′; knocks down PIK3CD short variant (antisense UCGAUCCAGGGCCUCCCUCA; sense: RNA, 3' dTdT, backbone not given here; antisense: RNA, 5' {P}, 3' dTdT, backbone not given here)”, the proliferation entry in the data set with VCaP cells [1] is listed as “no change”; in the data set on MDA PCa 2b cells [2], “decreased”. Further, the figures for the Matrigel invasion entry with VCaP cells [3] and in the data set with MDA PCa 2b cells [4] were “no change” and “decreased”, respectively.
